12 compounds from patent US8541575B2, “3,4-diarylpyrazoles as protein kinase inhibitors” (Nerviano Medical Sciences S.R.L., priority 2008, dated 2013) can be followed below.

The structures appear in SMILES notation. Some results are limits rather than exact numbers.

What all share (type): cell-based
Assay [1] relates to human melanoma cells A375 (with a mutated B-RAF). Nature of the assay: In vitro cell proliferation assay, A375. Conditions: A-375, 72 hours treatment, cellular ATP readout. As for the experimental part:
(§1) In Vitro Cell Proliferation Assay
(§2) Exponentially growing human melanoma cells A375 (with a mutated B-RAF) and human melanoma cells Mewo (with wild-type B-Raf) were seeded and incubated at 37° C. in a humidified 5% CO2 atmosphere. After 24 hours, scalar doses of the compound were added to the medium and cells oncubated for 72 hours. At the end of treatment, cells were washed and counted. Cell number was determined by a cellular adenosine triphosphate monitoring system. Cell proliferation was compared to control cells and the concentration inhibiting cell growth by 50% was calculated.

Assay [2] has as its system human melanoma cells Mewo (with wild-type B-Raf). Nature of the assay: In vitro cell proliferation assay, Mewo. Conditions: 72 hours treatment, cellular ATP readout. On the procedure: as §1, §2
In assay [3] the test system is p-MAPK (T202/Y204) in A375 human melanoma cells, having a mutated B-RAF. Nature of the assay: p-MAPK (T202/Y204) ArrayScan assay. The conditions noted are these: A-375, treated 1.5 or 2 hours, p-MAPK cytoplasmatic fluorescence, read-out: Array Scan A375 IC50. On the procedure: p-MAPK (T202/Y204) ArrayScan Assay
A375 human melanoma cells, having a mutated B-RAF, are seeded in 384-well poly-lysine coated plates (Matrix) at a density of 1000 cells/well with appropriate medium supplemented with 10% FCS and incubated for 16-24 hours. Cells are treated for 1.5 or 2 hours with increasing doses of compounds (starting dose 10 μM, dilution factor 2.5). At the end of the treatment cells are fixed with p-formaldehyde 3.7% for 15-30 min, then washed twice with D-PBS […] and permeabilized with D-PBS containing 0.1% Triton X-100 and 1% BSA (Sigma-Aldrich) for 15 minutes at room temperature (staining solution). Anti-phospho-MAPK (T202/Y204) monoclonal antibody E10 (Cell Signaling, cat. #9106) diluted 1:100 is added in staining solution and incubated for 1 hour at 37° C. After removal of the primary antibody solution, the anti-mouse Cy™2-conjugated (Green) secondary antibody (Amersham) diluted 1:500 in staining solution containing 2 μg/ml DAPI is added. The plate is incubated for 1 hour at 37° C., washed twice and then red with Cellomics' ArrayScan VTI (4 fields/well, CytoNucTrans algorithm).
The parameter “MEAN_RingAvgIntenCh2”, which measures the mean cytoplasmatic fluorescence intensity associated to p-MAPK staining, is reported as the final result.

For orientation: IC50 means the concentration at which inhibition is half-maximal. Take `Nc1nccc(-c2c[nH]nc2-c2cccc(NC(=O)Nc3ccc(C(F)(F)F)cc3)c2)n1` [compound 31, 1-{3-[4-(2-aminopyrimidin-4-yl)-1H-pyrazol-3-yl]phenyl}-3-[4-(trifluoromethyl)-phenyl]urea]: the half-inhibitory concentration (IC50) in assay [1] is 2.7 µM; in assay [2] it was more than 10 µM; in assay [3], 0.73 µM.

For the compound `CC(=O)Nc1nccc(-c2c[nH]nc2-c2cccc(NC(=O)Nc3ccc(C(F)(F)F)cc3)c2)n1` [compound 32, N-(4-{3-[3-({[4-(trifluoromethyl)phenyl]carbamoyl}amino)phenyl]-1H-pyrazol-4-yl}pyrimidin-2-yl)acetamide], the half-inhibitory concentration (IC50) is 5.32 µM in assay [1], more than 10 µM in assay [2] and 2.51 µM in assay [3].

Turning to `Nc1nccc(-c2c[nH]nc2-c2cccc(NS(=O)(=O)c3cc(F)ccc3F)c2)n1` [compound 34, N-{3-[4-(2-aminopyrimidin-4-yl)-1H-pyrazol-3-yl]phenyl}-2,5-difluorobenzene-sulfonamide], the IC50 in assay [1] is 3.18 µM; in assay [2] it was more than 10 µM; in assay [3], 0.34 µM.

Regarding `CCC(=O)Nc1cc(-c2c[nH]nc2-c2cccc(NC(=O)Nc3ccc(C(F)(F)F)cc3)c2)ccn1` [compound 39, N-(4-{3-[3-({[4-(trifluoromethyl)phenyl]carbamoyl}amino)phenyl]-1H-pyrazol-4-yl}pyridin-2-yl)propanamide], the half-inhibitory concentration (IC50) in assay [1] was 1.14 µM; in assay [2] it was more than 10 µM; in assay [3] it was 2.32 µM.

Consider `CC(C)C(=O)Nc1cc(-c2c[nH]nc2-c2cccc(NC(=O)Nc3ccc(C(F)(F)F)cc3)c2)ccn1` [compound 40, 2-methyl-N-(4-{3-[3-({[4-(trifluoromethyl)phenyl]carbamoyl}amino)phenyl]-1H-pyrazol-4-yl}pyridin-2-yl)propanamide], for which the half-maximal inhibitory concentration (IC50) in assay [1] is 3.63 µM; in assay [2] it was more than 10 µM; in assay [3], 1.75 µM.

On to `O=C(CCCO)Nc1cc(-c2c[nH]nc2-c2cccc(NC(=O)Nc3ccc(C(F)(F)F)cc3)c2)ccn1` [compound 43, 4-hydroxy-N-(4-{3-[3-({[4-(trifluoromethyl)phenyl]carbamoyl}amino)phenyl]-1H-pyrazol-4-yl}pyridin-2-yl)butanamide], for which the concentration for half-maximal inhibition (IC50) was 3.5 µM in assay [1], more than 10 µM in assay [2] and 0.41 µM in assay [3].

With `CCCCn1cc(-c2ccncc2)c(-c2cccc(NC(=O)Nc3ccc(C(F)(F)F)cc3)c2)n1` [compound 49, 1-[3-(1-Butyl-4-pyridin-4-yl-1H-pyrazol-3-yl)-phenyl]-3-(4-trifluoromethyl-phenyl)-urea], the IC50 in assay [1] was 2.61 µM; in assay [2], 4.54 µM; in assay [3], 1.59 µM.

As to `Cn1cc(-c2ccncc2)c(-c2c(F)ccc(NS(=O)(=O)c3cc(F)ccc3F)c2F)n1` [compound 52, N-[3-(1-Methyl-4-pyridin-4-yl-1H-pyrazol-3-yl)-2,4-difluoro-phenyl]-2,5-difluoro-benzenesulfonamide], the IC50 was 0.16 µM in assay [1], more than 10 µM in assay [2] and less than 0.01 µM in assay [3].

For `CNc1cc(-c2c[nH]nc2-c2c(F)ccc(NS(=O)(=O)c3cc(F)ccc3F)c2F)ccn1` [compound 53, N-{2,4-Difluoro-3-[4-(2-methylamino-pyridin-4-yl)-1H-pyrazol-3-yl]-phenyl}-2,5-difluoro-benzenesulfonamide], the results for the IC50 in assay [1], in assay [2] and in assay [3] were 1.75 µM, more than 10 µM and 0.87 µM, respectively.

As for `CCNc1cc(-c2c[nH]nc2-c2c(F)ccc(NS(=O)(=O)c3cc(F)ccc3F)c2F)ccn1` [compound 54, N-{3-[4-(2-Ethylamino-pyridin-4-yl)-1H-pyrazol-3-yl]-2,4-difluoro-phenyl}-2,5-difluoro-benzenesulfonamide], the IC50 in assay [1] was 0.97 µM; in assay [2], more than 10 µM; in assay [3], 0.31 µM.

As to `CCNc1nccc(-c2c[nH]nc2-c2cccc(NS(=O)(=O)c3cc(F)ccc3F)c2)n1` [compound 55, N-(3-{4-[2-(ethylamino)pyrimidin-4-yl]-1H-pyrazol-3-yl}phenyl)-2,5-difluorobenzenesulfonamide], the IC50 in assay [1] is 1.25 µM; in assay [2] it was more than 10 µM; in assay [3] it was 0.17 µM.

With `CC(C)Cn1cc(-c2ccncc2)c(-c2c(F)ccc(NS(=O)(=O)c3cc(F)ccc3F)c2F)n1` [compound 56, N-[3-(1-i-Butyl-4-pyridin-4-yl-1H-pyrazol-3-yl)-2,4-difluoro-phenyl]-2,5-difluoro-benzenesulfonamide], the half-inhibitory concentration (IC50) in assay [1] is less than 0.02 µM; in assay [2], more than 10 µM; in assay [3] it was less than 0.01 µM.
